Experimental data: patent US20250206756A1, “INHIBITORS” (Pfizer Inc., priority 2023, published 2025)

These compounds were tested on SZ95 human sebocytes (assay: High content imaging assay to quantify lipid droplets in a human sebocyte cell line). Settings: 48 hours incubation, Bodipy neutral lipid staining, read-out: Human SZ95 Sebocyte Lipid Imaging Assay / Percent Inhibition of Lipid Droplets IC50.
Format: cell-based
Experimental: High content imaging assay to quantify lipid droplets in a human sebocyte cell line One week prior to cell dosing, SZ95 human sebocytes were thawed and grown in a T175 tissue culture flask containing 50 mL media. Media was prepared as follows: Sebomed basal medium with stable glutamine and without phenol red (Sigma; Catalog No. F8205), 10% heat inactivated fetal bovine serum (Invitrogen; Cat. No. 10082), 5 ng/mL recombinant human epidermal growth factor (Gibco; Catalog No. PHG0311), 1 mM calcium chloride (Fisher Scientific; Catalog No. BP9742), and 1X penicillin/streptomycin (Thermo Fisher; Catalog No. 15140-122). Cells were cultured at 37° C. and the media was replaced every 48-72 hours until start of assay. Compounds were delivered as a 75 nL spot by the Echo 550 (Labcyte) into 384-well assay plates (PerkinElmer; Catalog No. 6057308) with final compound concentrations of […], 0.003, 0.001, 0.0003, and 0.0001 μM. The final DMSO concentration was 0.1%. SZ-95 cells were washed with Dulbecco's phosphate buffered saline (DPBS, Lonza; Catalog No. 17-512Q) and then detached with 0.25% Trypsin-EDTA (Gibco; Catalog No. 25200056). Growth media (25 mL) was added to the flask and the cells were further diluted to 1.33×10∧5 cells/mL. SZ-95 cells were plated at a density of 10,000 cells/well in 75 μL and incubated for 48 hours at 37° C. Using the Biomek FX (Beckman), 25 μL of media was removed and the cells were fixed by adding 18.7 μL of 16% paraformaldehyde (Electron Microscopy Sciences; Cat. No. 50980488). After a 30 minute incubation at room temperature, the plates were washed twice with 75pi DPBS. Following the second wash, all remaining DPBS was removed. Staining solution was prepared with 2 μM Bodipy (Invitrogen; Cat. No D3922, diluted 1:1000) and Hoechst (Life Technologies; Cat. No. H3570, diluted 1:2000) in DPBS. Using the Biomek FX, 30 μL of the staining solution was added to each well. The cells were incubated for 20 minutes at room temperature, then washed once with 75 μL DPBS. Finally, 30 μL of DPBS was added to each well and the plates were sealed with light blocking film. The plates were read on an Opera Phenix (PerkinElmer) for high content imaging. Nuclei were detected by Hoechst staining and lipid droplets by Bodipy, which stains neutral lipids. […] The percent (%) effect at each concentration of compound is calculated by Genedata Screener analysis program using a four-parameter logistic dose response equation and is based on and relative to the amount of lipid droplets in the positive and negative control wells contained within each assay plate to determine the 50% inhibition concentration (IC50).

Structure (SMILES)	IC50 [nM]
CCOc1cc(C(=O)N2CCC3(CC2)CC(=O)c2nc(C(C)(C)CO)sc2C3)cc2c(C)nn(C)c12 [Example 3, 1′-(7-ethoxy-1,3-dimethyl-1H-Indazole-5-carbonyl)-2-(1-hydroxy-2-methylpropan-2-yl)-5H-spiro[benzo[d]thiazole-6,4′-piperidin]-4(7H)-one]	16
CCOc1cc(C(=O)N2CCC3(CC2)Cc2sc(C(C)(C)C)nc2C(O)C3)cc2c(C)nn(C)c12 (racemic) [Example 4, rac-(R)-(2-(tert-butyl)-4-hydroxy-4,7-dihydro-5H-spiro[benzo[d]thiazole-6,4′-piperidin]-1′-yl)(7-ethoxy-1,3-dimethyl-1H-indazol-5-yl)methanone]	20
Cc1nn(C)c2c(O)cc(C(=O)N3CCC4(CC3)CC(=O)c3nc(C(C)(C)CO)sc3C4)cc12 [Example 8]	> 0.145
CCOc1cc(C(=O)N2CCC3(CC2)CC(=O)c2nc(C(C)(C)C)sc2C3)cc2c(C)n[nH]c12 [Example 1, 2-(tert-butyl)-1′-(7-ethoxy-3-methyl-1H-Indazole-5-carbonyl)-5H-spiro[benzo[d]thiazole-6,4′-piperidin]-4(7H)-one]	10
Cc1nn(C)c2c(O)cc(C(=O)N3CCC4(CC3)CC(=O)c3nc(C(C)(C)C)sc3C4)cc12 [Example 2]	11

Results, then the compound that gave them:

IC50 [nM]	Structure (SMILES)
7	CCOc1cc(C(=O)N2CCC3(CC2)Cc2sc(C(C)(C)C)nc2[C@@H](O)C3)cc2c(C)nn(C)c12 [Example 4b]
122	CCOc1cc(C(=O)N2CCC3(CC2)Cc2sc(C(C)(C)C)nc2[C@H](O)C3)cc2c(C)nn(C)c12 [Example 4a, (R)-(2-(tert-butyl)-4-hydroxy-4,7-dihydro-5H-spiro[benzo[d]thiazole-6,4′-piperidin]-1′-yl)(7-ethoxy-1,3-dimethyl-1H-indazol-5-yl)methanone]
